These results are taken from patent US8716297B2, “Chemical entities to be used for Wee1 inhibition for the treatment of cancer” (AbbVie Inc., priority 2011, dated 2014).

SMILES strings stand for the structures.

In this assay the target is T1, GST-tagged-Wee1 kinase (Homo sapiens, UniProt P30291).
T1 construct: purchased Carnabio 05-177
T1 sequence (P30291 whole entry): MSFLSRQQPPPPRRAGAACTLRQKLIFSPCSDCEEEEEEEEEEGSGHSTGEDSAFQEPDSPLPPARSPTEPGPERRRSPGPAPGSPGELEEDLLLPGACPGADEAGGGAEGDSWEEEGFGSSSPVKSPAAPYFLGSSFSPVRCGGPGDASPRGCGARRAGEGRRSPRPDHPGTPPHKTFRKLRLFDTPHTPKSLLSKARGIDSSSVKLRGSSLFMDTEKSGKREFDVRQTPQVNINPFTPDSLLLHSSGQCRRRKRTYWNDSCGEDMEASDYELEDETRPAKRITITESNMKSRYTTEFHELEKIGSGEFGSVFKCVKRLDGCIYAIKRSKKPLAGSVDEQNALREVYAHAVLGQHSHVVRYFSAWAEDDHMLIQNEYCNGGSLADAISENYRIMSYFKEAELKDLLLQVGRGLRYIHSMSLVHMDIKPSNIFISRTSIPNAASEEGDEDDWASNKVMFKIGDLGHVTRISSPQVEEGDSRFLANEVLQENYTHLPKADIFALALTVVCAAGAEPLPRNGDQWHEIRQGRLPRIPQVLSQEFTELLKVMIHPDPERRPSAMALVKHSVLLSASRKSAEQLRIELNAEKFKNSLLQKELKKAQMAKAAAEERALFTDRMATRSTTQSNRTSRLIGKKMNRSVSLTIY
Description: Wee1 time-resolved fluorescence equilibrium binding assay (displacement of Oregon Green-labeled ATP-competitive probe). To be noted: TR-FRET probe displacement; 2 nM GST-Wee1, 300 nM probe, 1 hour incubation; read-out: Wee-1 binding (Ki nM). The protocol: Wee1 kinase was assayed using a time-resolved fluorescence equilibrium binding assay monitoring displacement of a rapidly reversible Oregon Green-labeled ATP-competitive kinase probe (N-(2-(2-(2-(4-(4-(5-chloro-4-(2-(1-hydroxycyclobutyl)thiazol-5-yl)-1H-pyrrolo[2,3-b]pyridin-2-yl)phenyl)piperazin-1-yl)ethoxy)ethoxy)ethyl)-2′,7′-difluoro-3′,6′-dihydroxy-3-oxo-3H-spiro[isobenzofuran-1,9′-xanthene]-5-carboxamide) by competitive Wee1 inhibitors.
In general, Ki refers to a dissociation constant, usually derived from enzyme kinetics or from competition with a known ligand. As to `C=CCN1c2ccccc2-c2nc(Nc3cccc(N4CCN(C)CC4)c3)ncc2S1(=O)=O` [Example 18, 6-allyl-N-[3-(4-methylpiperazin-1-yl)phenyl]-6H-pyrimido[5,4-c][2,1]benzothiazin-2-amine 5,5-dioxide], the inhibitory constant (Ki) came to 4 nM. The value for `COC(=O)c1ccc2c(c1)N(c1cccc(C)c1)S(=O)(=O)c1cnc(Nc3ccc(N4CCN(C)CC4)cc3)nc1-2` [Example 89, methyl 6-(3-methylphenyl)-2-{[4-(4-methylpiperazin-1-yl)phenyl]amino}-6H-pyrimido[5,4-c][2,1]benzothiazine-8-carboxylate 5,5-dioxide] was 63 nM. Turning to `CCCN1c2cc(-c3c[nH]c4ncccc34)ccc2-c2nc(Nc3ccc(N4CCN(C)CC4)cc3)ncc2S1(=O)=O` [Example 77, N-[4-(4-methylpiperazin-1-yl)phenyl]-6-propyl-8-(1H-pyrrolo[2,3-b]pyridin-3-yl)-6H-pyrimido[5,4-c][2,1]benzothiazin-2-amine 5,5-dioxide], the Ki was found to be 57 nM. As for `C=CCN1c2ncccc2-c2nc(Nc3ccc(C4CCNCC4)cc3)ncc2S1(=O)=O` [Example 37, 6-allyl-N-[4-(piperidin-4-yl)phenyl]-6H-pyrido[2,3-c]pyrimido[4,5-e][1,2]thiazin-2-amine 5,5-dioxide], the figure is 5 nM; as for `CCCN1c2cc(C(=O)NC3CCCCC3)ccc2-c2nc(Nc3ccc(N4CCN(C)CC4)cc3)ncc2S1(=O)=O` [Example 81, N-cyclohexyl-2-{[4-(4-methylpiperazin-1-yl)phenyl]amino}-6-propyl-6H-pyrimido[5,4-c][2,1]benzothiazine-8-carboxamide 5,5-dioxide], 13 nM; as for `C=CCN1c2ccccc2-c2nc(Nc3ccccc3)ncc2S1(=O)=O` [Example 24, 6-allyl-N-phenyl-6H-pyrimido[5,4-c][2,1]benzothiazin-2-amine 5,5-dioxide], 220 nM.

In the case of `C=CCN1c2ccccc2-c2nc(Nc3ccc(N4CCN(C)CC4)cc3)ncc2S1(=O)=O` [Example 1, 6-allyl-N-[4-(4-methylpiperazin-1-yl)phenyl]-6H-pyrimido[5,4-c][2,1]benzothiazin-2-amine 5,5-dioxide], the Ki came to 1.8 nM. Turning to `CCCN1c2ccccc2-c2nc(Nc3ccc(N4CCN(C)CC4)cc3)ncc2S1(=O)=O` [Example 67, N-[4-(4-methylpiperazin-1-yl)phenyl]-6-propyl-6H-pyrimido[5,4-c][2,1]benzothiazin-2-amine 5,5-dioxide], the inhibition constant (Ki) was 4 nM.

As to `C=CCN1c2ccccc2-c2nc(Nc3ccc4c(c3)CNCC4)ncc2S1(=O)=O` [Example 26, 6-allyl-N-(1,2,3,4-tetrahydroisoquinolin-7-yl)-6H-pyrimdio[5,4-c][2,1]benzothiazin-2-amine 5,5-dioxide], the inhibition constant (Ki) stood at 1 nM.

Consider `C=CCN1c2ccccc2-c2nc(Nc3ccc(-c4ccncc4)cc3)ncc2S1(=O)=O` [Example 7, 6-allyl-N-[4-(pyridin-4-yl)phenyl]-6H-pyrimido[5,4-c][2,1]benzothiazin-2-amine 5,5-dioxide], for which the Ki was 1230 nM.

As to `COC(=O)c1ccc2c(c1)N(c1ccccc1)S(=O)(=O)c1cnc(Nc3ccc(N4CCN(C)CC4)cc3)nc1-2` [Example 88, methyl 2-{[4-(4-methylpiperazin-1-yl)phenyl]amino}-6-phenyl-6H-pyrimido[5,4-c][2,1]benzothiazine-8-carboxylate 5,5-dioxide], the Ki turned out to be 2 nM. The value for `C=CCN1c2ccccc2-c2nc(Nc3ccc4c(c3)N(C(C)=O)CC4)ncc2S1(=O)=O` [Example 5, 1-{6-[(6-allyl-5,5-dioxido-6H-pyrimido[5,4-c][2,1]benzothiazin-2-yl)amino]-2,3-dihydro-1H-indol-1-yl}ethanone] was 9 nM.

`C=CCN1c2ccccc2-c2nc(Nc3ccccc3N3CCN(C)CC3)ncc2S1(=O)=O` [Example 12, 6-allyl-N-[2-(4-methylpiperazin-1-yl)phenyl]-6H-pyrimido[5,4-c][2,1]benzothiazin-2-amine 5,5-dioxide]: the inhibitory constant (Ki) is 738 nM. For the molecule `CCCN1c2cc(-c3ccncc3)ccc2-c2nc(Nc3ccc(N4CCN(C)CC4)cc3)ncc2S1(=O)=O` [Example 76, N-[4-(4-methylpiperazin-1-yl)phenyl]-6-propyl-8-(pyridin-4-yl)-6H-pyrimido[5,4-c][2,1]benzothiazin-2-amine 5,5-dioxide], the inhibitory constant (Ki) came out at 5 nM. In the case of `C=CCN1c2ncccc2-c2nc(Nc3ccc(N4CCN(C)CC4)c(C)c3)ncc2S1(=O)=O` [Example 50, 6-allyl-N-[3-methyl-4-(4-methylpiperazin-1-yl)phenyl]-6H-pyrido[2,3-c]pyrimido[4,5-e][1,2]thiazin-2-amine 5,5-dioxide], the Ki came to 5 nM. As for `CN1CCN(c2ccc(Nc3ncc4c(n3)-c3ccccc3N(C)S4(=O)=O)cc2)CC1` [Example 56, 6-methyl-N-[4-(4-methylpiperazin-1-yl)phenyl]-6H-pyrimido[5,4-c][2,1]benzothiazin-2-amine 5,5-dioxide], the Ki was 9 nM. Take `C=CCN1c2ncccc2-c2nc(Nc3ccc(N4CCN(C)CC4)cc3)ncc2S1(=O)=O` [Example 40, 6-allyl-N-[4-(4-methylpiperazin-1-yl)phenyl]-6H-pyrido[2,3-c]pyrimido[4,5-e][1,2]thiazin-2-amine 5,5-dioxide]: the Ki turned out to be 5 nM.

As for `CCCN1c2ccc(-c3cccc(C(=O)NC)c3)cc2-c2nc(Nc3ccc(N4CCN(C)CC4)cc3)ncc2S1(=O)=O` [Example 100, N-methyl-3-(2-{[4-(4-methylpiperazin-1-yl)phenyl]amino}-5,5-dioxido-6-propyl-6H-pyrimido[5,4-c][2,1]benzothiazin-9-yl)benzamide], the inhibition constant (Ki) is 4 nM. `C=CCN1c2ncccc2-c2nc(Nc3ccc(N4CCN5CCCC5C4)cc3)ncc2S1(=O)=O` (stereo not shown) [Example 48, 6-allyl-N-[4-(hexahydropyrrolo[1,2-a]pyrazin-2(1H)-yl)phenyl]-6H-pyrido[2,3-c]pyrimido[4,5-e][1,2]thiazin-2-amine 5,5-dioxide]: the Ki was 2 nM. As for `C=CCN1c2ncccc2-c2nc(Nc3ccc(N4CCN(C)CC4)cc3C)ncc2S1(=O)=O` [Example 44, 6-allyl-N-[2-methyl-4-(4-methylpiperazin-1-yl)phenyl]-6H-pyrido[2,3-c]pyrimido[4,5-e][1,2]thiazin-2-amine 5,5-dioxide], the figure is 487 nM. Consider `CCCN1c2cc(-c3ccc(C(=O)NC4CC4)cc3)ccc2-c2nc(Nc3ccc(N4CCN(C)CC4)cc3)ncc2S1(=O)=O` [Example 72, N-cyclopropyl-4-(2-{[4-(4-methylpiperazin-1-yl)phenyl]amino}-5,5-dioxido-6-propyl-6H-pyrimido[5,4-c][2,1]benzothiazin-8-yl)benzamide], for which the Ki was determined as 7 nM. As for `C/C=C/N1c2ccccc2-c2nc(Nc3ccc(N4CCN(C)CC4)cc3)ncc2S1(=O)=O` [Example 2, N-[4-(4-methylpiperazin-1-yl)phenyl]-6-[(1E)-prop-1-en-1-yl]-6H-pyrimido[5,4-c][2,1]benzothiazin-2-amine 5,5-dioxide], the figure is 1.7 nM; as for `CN1c2ccccc2-c2nc(Nc3ccc(N4CCOCC4)cc3)ncc2S1(=O)=O` [Example 57, 6-methyl-N-[4-(morpholin-4-yl)phenyl]-6H-pyrimido[5,4-c][2,1]benzothiazin-2-amine 5,5-dioxide], 12 nM.

Consider `CCCN1c2cc(Br)ccc2-c2nc(Nc3ccc(N4CCN(C)CC4)cc3)ncc2S1(=O)=O` [Example 66, 8-bromo-N-[4-(4-methylpiperazin-1-yl)phenyl]-6-propyl-6H-pyrimido[5,4-c][2,1]benzothiazin-2-amine 5,5-dioxide], for which the Ki is 6 nM. The value for `C=CCN1c2ccccc2-c2nc(Nc3ccc4c(c3)N(C)CCC4)ncc2S1(=O)=O` [Example 8, 6-allyl-N-(1-methyl-1,2,3,4-tetrahydroquinolin-7-yl)-6H-pyrimido[5,4-c][2,1]benzothiazin-2-amine 5,5-dioxide] was 106 nM; that for `CCCN1c2ccc(-c3ccncc3)cc2-c2nc(Nc3ccc(N4CCN(C)CC4)cc3)ncc2S1(=O)=O` [Example 99, N-[4-(4-methylpiperazin-1-yl)phenyl]-6-propyl-9-(pyridin-4-yl)-6H-pyrimido[5,4-c][2,1]benzothiazin-2-amine 5,5-dioxide] was 3 nM. The value for `C=CCN1c2ccccc2-c2nc(Nc3ccc(C4CCN(C)CC4)cc3)ncc2S1(=O)=O` [Example 19, 6-allyl-N-[4-(1-methylpiperidin-4-yl)phenyl]-6H-pyrimido[5,4-c][2,1]benzothiazin-2-amine 5,5-dioxide] was 1.2 nM; that for `CCCN1c2ccc(-c3ccccc3)cc2-c2nc(Nc3ccc(N4CCN(C)CC4)cc3)ncc2S1(=O)=O` [Example 97, N-[4-(4-methylpiperazin-1-yl)phenyl]-9-phenyl-6-propyl-6H-pyrimido[5,4-c][2,1]benzothiazin-2-amine 5,5-dioxide] was 6 nM. In the case of `C=CCN1c2ccccc2-c2nc(Nc3ccc(C4CCCCC4)cc3)ncc2S1(=O)=O` [Example 13, 6-allyl-N-(4-cyclohexylphenyl)-6H-pyrimido[5,4-c][2,1]benzothiazin-2-amine 5,5-dioxide], the inhibition constant Ki worked out at 2080 nM. The value for `C=CCN1c2ncccc2-c2nc(Nc3ccc(N4CCOCC4)cc3)ncc2S1(=O)=O` [Example 52, 6-allyl-N-[4-(morpholin-4-yl)phenyl]-6H-pyrido[2,3-c]pyrimido[4,5-e][1,2]thiazin-2-amine 5,5-dioxide] was 12 nM; that for `C=CCN1c2ccccc2-c2nc(N)ncc2S1(=O)=O` [Example 29, 6-allyl-6H-pyrimido[5,4-c][2,1]benzothiazin-2-amine 5,5-dioxide] was 413 nM.
